pIC50: −log10 of the molar value. Read-outs that look alike come from different tables or passages of the source.
How the values were obtained:
[1] = Assay C: permeability in CACO-2 cells; assay type: in vitro ADME; settings: human, Caco-2, pH 7.2
Method in brief: (§1)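 Caco-2 monolayers were grown 10–25 days on porous filter inserts. Compound was applied to the apical or basolateral donor side for A-B or B-A transport (3 filters), and the receiver was sampled for up to 2 h. Quantitation was by HPLC-MS/MS or scintillation; efflux ratio = B-A/A-B permeability.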

CACO-2 cells = assay: Assay C: permeability in CACO-2 cells; assay type: in vitro ADME; settings: pairs with and without 4-fluoropiperidyl, CACO2 cells
Method in brief: as §1

[2] = tested on: SIRPα signalling induced by A549 cells; assay: Assay B: SIRPα signalling assay using A549 cells; assay type: cell-based; settings: Homo sapiens, Table 5, prior art compounds, read-out: Inhibition of SIRPα signalling induced by A549 cells: IC50
Method in brief: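 Raji or A549 cells (5000/well) were each incubated with serially diluted compound for 48 h at 37 °C. Jurkat PathHunter SIRPαV1 reporter cells (15000/well) were then added for 5 h. Beta-galactosidase luminescence gave IC50 via a 4-parameter sigmoidal fit.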

murine hepatocytes = assay: Assay E: stability in murine hepatocytes; assay type: in vitro ADME, mouse; settings: Table 13, prior art compounds, 1 μM, 5% species serum
Method in brief: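 Cryopreserved mouse hepatocytes, typically 1 Mio cells/mL in medium with 5% species serum, were dosed at 1 μM compound (0.05% DMSO) at 37 °C and sampled over 0–6 h. Parent decline was measured by HPLC-MS/MS and CLint calculated from dose/AUC, then scaled by well-stirred liver model.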

isolated QPCTL [3] = biological target: T1, isolated QPCTL (Homo sapiens, UniProt Q9NXS2); settings: as disclosed in WO 2024/020517; read-out: Inhibitory activity on isolated QPCTL, IC50; cited from earlier work
T1 sequence (Q9NXS2 whole entry): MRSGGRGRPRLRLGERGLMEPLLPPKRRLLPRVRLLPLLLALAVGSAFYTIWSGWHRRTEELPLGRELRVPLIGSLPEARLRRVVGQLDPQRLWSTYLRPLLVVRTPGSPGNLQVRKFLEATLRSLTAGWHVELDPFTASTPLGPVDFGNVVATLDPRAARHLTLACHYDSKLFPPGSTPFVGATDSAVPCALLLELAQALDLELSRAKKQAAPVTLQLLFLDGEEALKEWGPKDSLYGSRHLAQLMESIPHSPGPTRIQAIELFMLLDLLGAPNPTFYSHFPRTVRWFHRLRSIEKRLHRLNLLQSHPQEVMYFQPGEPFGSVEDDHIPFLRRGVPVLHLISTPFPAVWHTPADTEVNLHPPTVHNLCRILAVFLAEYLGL

isolated QPCTL [4] = biological target: T1, isolated QPCTL; settings: as disclosed in WO 2023/205173; read-out: inhibitory activity on isolated QPCTL, IC50; cited from earlier work
CYP3A4 mRNA = assay: Assay D: CYP induction screening assay in primary human hepatocytes; assay type: in vitro ADME; settings: Table 10, prior art compounds, 48 h
Method in brief: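 Single-donor cryopreserved human hepatocytes on collagen with Matrigel overlay were exposed to test compound at […] (0.1% DMSO) for 48 h, medium renewed at 24 h. CYP3A4 mRNA quantified by QuantiGene Plex/Luminex, normalised to geometric mean of RPL32, EIF4E2, GUSB and expressed relative to solvent control.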

[5] = tested on: SIRPα signalling induced by Raji cells; assay: Assay B: SIRPα signalling assay using Raji cells; assay type: cell-based; settings: Homo sapiens, Table 5, prior art compounds, read-out: Inhibition of SIRPα signalling induced by Raji cells: IC50
Method in brief: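 SIRPα signalling induced by Raji cells in a PathHunter reporter line, read as β-galactosidase complementation luminescence. Detection reagent 1 added for 15 min, then reagent 2 for 60 min in the dark, both at room temperature.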

QPCTL = biological target: T2, QPCTL (Homo sapiens, UniProt Q9NXS2); assay: Assay A: biochemical QPCTL activity assay (MALDI-TOF MS, CD47 peptide substrate); settings: Table 3, prior art compounds, read-out: Inhibition of QPCTL: IC50
T2 construct: made in house
T2 sequence (Q9NXS2 whole entry, species assumed): as the sequence (Q9NXS2 whole entry) above
Method in brief: (§2)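 Enzyme and compound pre-incubated 10 min at 24° C in 20 mM Tris pH 7.5 with TCEP, BSA, Tween20, then 40 min with CD47 peptide (10 μM for QPCTL, 20 μM for QPCT). Pyroglutamate product/internal standard ratio by MALDI-TOF MS, normalized to controls; four-parameter logistic fit.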

QPCT = biological target: T3, QPCT (Homo sapiens, UniProt Q16769); assay: Assay A: biochemical QPCT activity assay (MALDI-TOF MS, CD47 peptide substrate); settings: Table 3, prior art compounds, read-out: Inhibition of QPCT: IC50
T3 construct: purchased Origine (OriGene) TP700028
T3 sequence (Q16769 29-361): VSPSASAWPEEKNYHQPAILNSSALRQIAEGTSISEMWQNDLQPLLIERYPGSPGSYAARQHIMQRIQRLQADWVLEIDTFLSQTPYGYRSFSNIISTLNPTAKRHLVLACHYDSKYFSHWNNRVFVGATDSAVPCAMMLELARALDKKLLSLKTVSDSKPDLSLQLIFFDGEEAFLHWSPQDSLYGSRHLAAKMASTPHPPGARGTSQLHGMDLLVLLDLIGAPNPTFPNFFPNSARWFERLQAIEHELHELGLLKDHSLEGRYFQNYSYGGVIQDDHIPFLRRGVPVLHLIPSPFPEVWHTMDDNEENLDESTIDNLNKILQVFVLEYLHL
Method in brief: as §2

[6] = pairs with and without 4-fluoropiperidyl, CACO2 cells, read-out: Efflux ratio (BA/AB)

efflux ratio [1, 6]	CACO2 Perm. (CACO-2 cells)	pIC50 [2]	Mouse Hepatocyte Stability QH (murine hepatocytes) [%]	n-fold induction of CYP3A4 at 10 μM (CYP3A4 mRNA) [n-fold]	pIC50 [5]	pIC50 (QPCTL)	Papp A→B [1] [×10⁻⁶ cm/s]	efflux ratio ([1]; read-out: Efflux Ratio)	pIC50 (QPCT)	Compound	pIC50 (isolated QPCTL [3])	pIC50 (isolated QPCTL [4])
5.7	17.0 10^−6 cm/sec									Cn1cnnc1C1CCN(c2c(C#N)cc(F)cc2-c2cnc3nn(C(C)(C)C)c(C(F)(F)F)c3c2)CC1		
0.8	51.0 10^−6 cm/sec									Cn1cnnc1C1(F)CCN(c2c(C#N)cc(F)cc2-c2cnc3nn(C(C)(C)C)c(C(F)(F)F)c3c2)CC1		
	0.3 10^−6 cm/sec	7.15								Cn1cnnc1C1CCN(c2c(C#N)cccc2-c2ccnnc2)CC1 [Compound 11]	> 7.00	
		8.40	33	1.9	8.40					Cn1c(N)nnc1C1CCN(c2c(C#N)cccc2-c2ccc(F)nc2)CC1 [Compound 14, reference compound]		> 6.00
		6.40	61	1.5	6.11	8.00	< 0.6	> 21.7	7.62	Cn1cc2c(-c3cccc(C#N)c3N3CCC(c4nncn4C)CC3)cncc2n1 [Compound 16, reference compound]	> 7.00	
		6.68	19	1.1	6.34	9.00	< 0.02	> 135	8.70	COc1ccc(-c2ccnnc2)c(N2CCC(c3nncn3C)CC2)c1C#N [Compound 26, reference compound]	> 7.00	
		6.45	26	0.8	5.86	9.00	< 0.04	> 40	8.30	Cn1cnnc1C1CCN(c2c(C#N)cccc2-c2cnc3nccn3c2)CC1 [Compound 93, reference compound]	> 7.00	
		5.89	30	<1	5.69	9.00	< 1.4	> 0.8	8.52	COc1ccc(-c2cnc3nccn3c2)c(N2CCC(c3nncn3C)CC2)c1C#N [Compound 94, reference compound]	> 7.00	
		5.37	<12	<1	< 5.00	6.83	< 0.78	> 5	6.79	Cn1cnnc1C1CCN(c2c(C#N)cccc2-c2cnc3[nH]nc(O)c3c2)CC1 [Compound 113, reference compound]	> 7.00	
	0.2 10^−6 cm/sec									Cn1cnnc1C1CCN(c2c(-c3cnc4nn(C(C)(C)C)cc4c3)ccc(C(F)(F)F)c2C#N)CC1 [Example 32 in EP 23161417.3]		
	0.5 10^−6 cm/sec									Cn1cnnc1C1CCN(c2c(C#N)cccc2-c2cnc3nn(C(C)(C)C)cc3c2)CC1 [Example 50 in EP 22216126.7]		
	15.0 10^−6 cm/sec									Cn1cnnc1C1(F)CCN(c2c(C#N)cccc2-c2ccnnc2)CC1 [Example 52 in EP 22216126.7]		
	50.0 10^−6 cm/sec									Cn1cnnc1C1(F)CCN(c2c(C#N)cccc2-c2ccc(F)nc2)CC1 [Example 56 in EP 23161417.3]		
	4.9 10^−6 cm/sec									Cn1cnnc1C1(F)CCN(c2c(C#N)cccc2-c2cnc3nn(C(C)(C)C)cc3c2)CC1 [Example 62 in EP 22216126.7]		

Compound	efflux ratio [1, 6]	CACO2 Perm. (CACO-2 cells)	pIC50 [2]	Mouse Hepatocyte Stability QH (murine hepatocytes) [%]	n-fold induction of CYP3A4 at 10 μM (CYP3A4 mRNA) [n-fold]	pIC50 [5]	pIC50 (QPCTL)	Papp A→B [1] [×10⁻⁶ cm/s]	efflux ratio ([1]; read-out: Efflux Ratio)	pIC50 (QPCT)	pIC50 (isolated QPCTL [3])	pIC50 (isolated QPCTL [4])
Cn1cnnc1C1CCN(c2c(C#N)cccc2-c2ccc(F)nc2)CC1 [(1)/QP5020, reference compound]		28.0 10^−6 cm/sec	8.10	83								
